Results: paper PMC7211202 (Investigational New Drugs, 2019)
Values joined by “and” are separate entries in the source; they are usually repeats but may differ in a detail not shown here. Identical values can stand only once.

Experiment: Patient incidence of adverse events (CTCAE version 4.0)
Assay type: in vivo
Source text: Each patient was monitored for 21 days for the occurrence of dose-limiting toxicities (DLTs), defined as febrile neutropenia, neutropenic infection, grade 4 neutropenia lasting >7 days, grade ≥ 3 thrombocytopenia lasting >7 days (solid tumors only), grade 3 thrombocytopenia with grade ≥ 2 bleeding (solid tumors only), grade 3 or 4 thrombocytopenia with grade > 1 bleeding (multiple myeloma only), grade 4 thrombocytopenia (solid tumors only), or grade 4 thrombocytopenia lasting >14 days (multiple myeloma only), or as grade ≥ 3 nausea, vomiting, or diarrhea after support; grade 3 fatigue lasting >7 days; any other grade ≥ 3 adverse event (AE); grade ≥ 3 kidney injury (multiple myeloma only), or treatment-related AEs not returning to grade ≤ 1 (solid tumors only) per Common Terminology Criteria for Adverse Events (CTCAE), version 4.0. The MTD was defined as the maximum dose, at which the probability of a DLT was ≤25% in Part 1A and ≤ 33% in Parts 1B and 1C. Treatment continued until disease progression, intolerable toxicity, or withdrawal of consent.
AEs were recorded for all enrolled patients.

[1] = dose escalation, 300 mg (n = 4)
[2] = dose escalation, 360 mg (n = 4)
[3] = dose escalation, 480 mg (n = 6)
[4] = dose escalation, Total (n = 39)

In the case of `CC(C)[C@@H](CS(=O)(=O)C(C)C)N1C(=O)[C@@](C)(CC(=O)O)C[C@H](c2cccc(Cl)c2)[C@H]1c1ccc(Cl)cc1` [AMG 232], the “Treatment-related AE: Upper abdominal pain” value [1] was 1 (25) n (%), the “Treatment-related AE: Vomiting” value [1] was 3 (75) n (%) and the “Treatment-related serious AE: Abdominal pain (grade 2)” value [1] was 0 n (%). The “Treatment-related serious AE: Dehydration (grade 2)” value [1] was 1 (25) n (%), the “Treatment-related serious AE: Diarrhea” value [1] was 1 (25) n (%) and the “Treatment-related serious AE: Diarrhea, Grade 2” value [1] was 0 n (%). For the same compound, the “Treatment-related serious AE: Diarrhea, Grade 3” value [1] was 1 (25) n (%), the “Treatment-related serious AE: Febrile neutropenia (grade 3)” value [1] was 1 (25) n (%) and the “Treatment-related serious AE: Hematemesis (grade 3)” value [1] was 0 n (%). The “Treatment-related serious AE: Nausea (grade 3)” value [1] was 0 n (%), the “Treatment-related serious AE: Neutropenia (grade 4)” value [1] was 0 n (%) and the “Treatment-related serious AE: Non-cardiac chest pain (grade 3)” value [1] was 0 n (%). For the same compound, the “Treatment-related serious AE: Thrombocytopenia (grade 4)” value [1] was 0 n (%), the “Treatment-related serious AE: Vomiting” value [1] was 2 (50) n (%) and the “Treatment-related serious AE: Vomiting, Grade 2” value [1] was 1 (25) n (%). The “Treatment-related serious AE: Vomiting, Grade 3” value [1] was 1 (25) n (%), the “Patients with any treatment-emergent AE” value [2] was 4 (100) n (%) and the “Patients with any treatment-emergent serious AE” value [2] was 0 n (%). For the same compound, the “Patients with any treatment-related AE” value [2] was 4 (100) n (%), the “Patients with any treatment-related AE, Grade 3” value (“Patients … Grade 3” for short) [2] was 3 (75) n (%) and the “Patients with any treatment-related AE, Grade 4” value (“Patients … Grade 4” for short) [2] was 2 (50) n (%). For the same compound, the “Patients with any treatment-related AE, Grade 5” value (“Patients … Grade 5” for short) [2] was 0 n (%), the “Patients with any treatment-related serious AE” value [2] was 0 n (%) and the “Treatment-related AE: Abdominal pain” value [2] was 1 (25) n (%). The “Treatment-related AE: Anemia” value [2] was 2 (50) n (%), the “Treatment-related AE: Asthenia” value [2] was 2 (50) n (%) and the “Treatment-related AE: Decrease appetite” value [2] was 3 (75) n (%). The “Treatment-related AE: Diarrhea” value [2] was 4 (100) n (%), the “Treatment-related AE: Dysgeusia” value [2] was 1 (25) n (%) and the “Treatment-related AE: Fatigue” value [2] was 0 n (%). For the same compound, the “Treatment-related AE: Myalgia” value [2] was 2 (50) n (%), the “Treatment-related AE: Nausea” value [2] was 4 (100) n (%) and the “Treatment-related AE: Neutropenia” value [2] was 3 (75) n (%). For the same compound, the “Treatment-related AE: Thrombocytopenia” value [2] was 4 (100) n (%), the “Treatment-related AE: Upper abdominal pain” value [2] was 1 (25) n (%) and the “Treatment-related AE: Vomiting” value [2] was 3 (75) n (%). For the same compound, the “Treatment-related serious AE: Abdominal pain (grade 2)” value [2] was 0 n (%), the “Treatment-related serious AE: Dehydration (grade 2)” value [2] was 0 n (%) and the “Treatment-related serious AE: Diarrhea” value [2] was 0 n (%). The “Treatment-related serious AE: Diarrhea, Grade 2” value [2] was 0 n (%), the “Treatment-related serious AE: Diarrhea, Grade 3” value [2] was 0 n (%) and the “Treatment-related serious AE: Febrile neutropenia (grade 3)” value [2] was 0 n (%). For the same compound, the “Treatment-related serious AE: Hematemesis (grade 3)” value [2] was 0 n (%), the “Treatment-related serious AE: Nausea (grade 3)” value [2] was 0 n (%) and the “Treatment-related serious AE: Neutropenia (grade 4)” value [2] was 0 n (%). For the same compound, the “Treatment-related serious AE: Non-cardiac chest pain (grade 3)” value [2] was 0 n (%), the “Treatment-related serious AE: Thrombocytopenia (grade 4)” value [2] was 0 n (%) and the “Treatment-related serious AE: Vomiting” value [2] was 0 n (%). The “Treatment-related serious AE: Vomiting, Grade 2” value [2] was 0 n (%), the “Treatment-related serious AE: Vomiting, Grade 3” value [2] was 0 n (%) and the “Patients with any treatment-emergent AE” value [3] was 6 (100) n (%). The “Patients with any treatment-emergent serious AE” value [3] was 4 (67) n (%), the “Patients with any treatment-related AE” value [3] was 6 (100) n (%) and the “Patients … Grade 3” value [3] was 3 (50) n (%). The “Patients … Grade 4” value [3] was 3 (50) n (%), the “Patients … Grade 5” value [3] was 0 n (%) and the “Patients with any treatment-related serious AE” value [3] was 2 (33) n (%). For the same compound, the “Treatment-related AE: Abdominal pain” value [3] was 0 n (%), the “Treatment-related AE: Anemia” value [3] was 2 (33) n (%) and the “Treatment-related AE: Asthenia” value [3] was 0 n (%). The “Treatment-related AE: Decrease appetite” value [3] was 1 (17) n (%), the “Treatment-related AE: Diarrhea” value [3] was 6 (100) n (%) and the “Treatment-related AE: Dysgeusia” value [3] was 0 n (%). The “Treatment-related AE: Fatigue” value [3] was 4 (67) n (%), the “Treatment-related AE: Myalgia” value [3] was 1 (17) n (%) and the “Treatment-related AE: Nausea” value [3] was 3 (50) n (%). The “Treatment-related AE: Neutropenia” value [3] was 3 (50) n (%), the “Treatment-related AE: Thrombocytopenia” value [3] was 5 (83) n (%) and the “Treatment-related AE: Upper abdominal pain” value [3] was 0 n (%). The “Treatment-related AE: Vomiting” value [3] was 4 (67) n (%), the “Treatment-related serious AE: Abdominal pain (grade 2)” value [3] was 0 n (%) and the “Treatment-related serious AE: Dehydration (grade 2)” value [3] was 0 n (%). The “Treatment-related serious AE: Diarrhea” value [3] was 0 n (%), the “Treatment-related serious AE: Diarrhea, Grade 2” value [3] was 0 n (%) and the “Treatment-related serious AE: Diarrhea, Grade 3” value [3] was 0 n (%). The “Treatment-related serious AE: Febrile neutropenia (grade 3)” value [3] was 0 n (%), the “Treatment-related serious AE: Hematemesis (grade 3)” value [3] was 1 (17) n (%) and the “Treatment-related serious AE: Nausea (grade 3)” value [3] was 0 n (%). For the same compound, the “Treatment-related serious AE: Neutropenia (grade 4)” value [3] was 1 (17) n (%), the “Treatment-related serious AE: Non-cardiac chest pain (grade 3)” value [3] was 0 n (%) and the “Treatment-related serious AE: Thrombocytopenia (grade 4)” value [3] was 2 (33) n (%). For the same compound, the “Treatment-related serious AE: Vomiting” value [3] was 0 n (%), the “Treatment-related serious AE: Vomiting, Grade 2” value [3] was 0 n (%) and the “Treatment-related serious AE: Vomiting, Grade 3” value [3] was 0 n (%). For the same compound, the “Patients with any treatment-emergent AE” value [4] was 37 (95%) n (%) and 37 (95) n (%), the “Patients with any treatment-emergent serious AE” value [4] was 14 (36%) n (%) and 14 (36) n (%) and the “Patients … Grade 3” value [4] was 13 (33) n (%). The “Patients … Grade 4” value [4] was 8 (21) n (%), the “Patients … Grade 5” value [4] was 0 n (%) and the “Treatment-related AE: Abdominal pain” value [4] was 4 (10) n (%). The “Treatment-related AE: Anemia” value [4] was 5 (13) n (%), the “Treatment-related AE: Asthenia” value [4] was 4 (10) n (%) and the “Treatment-related AE: Decrease appetite” value [4] was 10 (26) n (%). For the same compound, the “Treatment-related AE: Diarrhea” value [4] was 25 (64) n (%), the “Treatment-related AE: Dysgeusia” value [4] was 4 (10) n (%) and the “Treatment-related AE: Fatigue” value [4] was 16 (41) n (%). The “Treatment-related AE: Myalgia” value [4] was 4 (10) n (%), the “Treatment-related AE: Nausea” value [4] was 20 (51) n (%) and the “Treatment-related AE: Neutropenia” value [4] was 8 (21) n (%). For the same compound, the “Treatment-related AE: Thrombocytopenia” value [4] was 14 (36) n (%), the “Treatment-related AE: Upper abdominal pain” value [4] was 4 (10) n (%) and the “Treatment-related AE: Vomiting” value [4] was 18 (46) n (%). The “Treatment-related serious AE: Abdominal pain (grade 2)” value [4] was 1 (3) n (%), the “Treatment-related serious AE: Dehydration (grade 2)” value [4] was 1 (3) n (%) and the “Treatment-related serious AE: Diarrhea” value [4] was 2 (5) n (%). For the same compound, the “Treatment-related serious AE: Diarrhea, Grade 2” value [4] was 1 (3) n (%), the “Treatment-related serious AE: Diarrhea, Grade 3” value [4] was 1 (3) n (%) and the “Treatment-related serious AE: Febrile neutropenia (grade 3)” value [4] was 1 (3) n (%). For the same compound, the “Treatment-related serious AE: Hematemesis (grade 3)” value [4] was 1 (3) n (%), the “Treatment-related serious AE: Nausea (grade 3)” value [4] was 1 (3) n (%) and the “Treatment-related serious AE: Neutropenia (grade 4)” value [4] was 1 (3) n (%). For the same compound, the “Treatment-related serious AE: Non-cardiac chest pain (grade 3)” value [4] was 1 (3) n (%), the “Treatment-related serious AE: Thrombocytopenia (grade 4)” value [4] was 2 (5) n (%) and the “Treatment-related serious AE: Vomiting” value [4] was 3 (8) n (%). For the same compound, the “Treatment-related serious AE: Vomiting, Grade 2” value [4] was 1 (3) n (%), the “Treatment-related serious AE: Vomiting, Grade 3” value [4] was 2 (5) n (%) and the “Treatment-emergent AE: abdominal pain” value (dose escalation, all patients) was 21%. For the same compound, the “Treatment-emergent AE: anemia” value (dose escalation, all patients) was 26%, the “Treatment-emergent AE: decreased appetite” value (dose escalation, all patients) was 39% and the “Treatment-emergent AE: diarrhea” value (dose escalation, all patients) was 67%. The “Treatment-emergent AE: fatigue” value (dose escalation, all patients) was 41%, the “Treatment-emergent AE: nausea” value (dose escalation, all patients) was 59% and the “Treatment-emergent AE: neutropenia” value (dose escalation, all patients) was 26%. The “Treatment-emergent AE: thrombocytopenia” value (dose escalation, all patients) was 36%, the “Treatment-emergent AE: vomiting” value (dose escalation, all patients) was 51% and the “Treatment-related AE: Diarrhea” value (dose escalation, all patients) was 64%. For the same compound, the “Treatment-related AE: Fatigue” value (dose escalation, all patients) was 41%, the “Treatment-related AE: Nausea” value (dose escalation, all patients) was 51% and the “Treatment-related AE: Neutropenia” value (dose escalation, all patients) was 21%. The “Treatment-related AE: Thrombocytopenia” value (dose escalation, all patients) was 36%, the “Treatment-related AE: Vomiting” value (dose escalation, all patients) was 46% and the “Treatment-related AE: decreased appetite” value (dose escalation, all patients) was 26%. The “Patients discontinuing treatment due to AEs” value (entire study (107 patients)) was 21 n.
